This test concerns the target T1, E-selectin (Homo sapiens, UniProt P16581).
T1 sequence (P16581 whole entry): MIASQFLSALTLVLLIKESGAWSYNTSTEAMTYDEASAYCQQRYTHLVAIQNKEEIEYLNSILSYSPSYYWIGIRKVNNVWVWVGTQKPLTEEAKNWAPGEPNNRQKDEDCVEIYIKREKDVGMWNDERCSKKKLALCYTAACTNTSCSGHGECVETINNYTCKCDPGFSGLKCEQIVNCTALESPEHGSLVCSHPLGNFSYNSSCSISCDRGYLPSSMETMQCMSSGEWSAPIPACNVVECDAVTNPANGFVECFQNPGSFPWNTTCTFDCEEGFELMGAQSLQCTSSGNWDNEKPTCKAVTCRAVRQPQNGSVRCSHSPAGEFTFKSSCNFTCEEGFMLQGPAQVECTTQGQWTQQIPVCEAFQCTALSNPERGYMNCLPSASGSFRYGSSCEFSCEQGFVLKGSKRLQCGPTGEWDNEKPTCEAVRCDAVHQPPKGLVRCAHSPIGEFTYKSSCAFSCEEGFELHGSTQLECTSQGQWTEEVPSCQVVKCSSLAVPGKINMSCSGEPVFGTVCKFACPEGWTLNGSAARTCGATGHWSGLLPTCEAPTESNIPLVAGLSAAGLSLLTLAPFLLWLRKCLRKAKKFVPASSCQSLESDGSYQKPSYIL
Briefly: Tested in vitro to inhibit cell adhesion of HL-60 cells to recombinant human soluble Selectin E.

With `C=CC(=O)NCCCCCCO[C@@H]1O[C@@H](CO)[C@@H](O[C@@H]2O[C@@H](CO)[C@H](O)[C@H](O[C@]3(C(=O)O)C[C@@H](O)[C@@H](NC(C)=O)[C@H]([C@H](O)[C@H](O)CO)O3)[C@@H]2O)[C@H](O[C@@H]2O[C@@H](C)[C@@H](O)[C@H](O)[C@@H]2O)[C@@H]1NC(=O)c1ccc2ccccc2c1`, the concentration for half-maximal inhibition (IC50) was 90.2 µM. The figure for `CCO[C@@H]1O[C@@H](CO)[C@@H](O[C@@H]2O[C@@H](CO)[C@H](O)[C@H](O[C@]3(C(=O)O)C[C@@H](O)[C@@H](NC(C)=O)[C@H]([C@H](O)[C@H](O)CO)O3)[C@@H]2O)[C@H](O[C@@H]2O[C@@H](C)[C@@H](O)[C@H](O)[C@@H]2O)[C@@H]1NC(C)=O` is 1760 µM.

The IC50 is the point on the concentration scale where inhibition reaches its midpoint.

(Values after BindingDB's records for doi:10.7270/Q28S4S3D (n/a, 1997).)
